In ChEMBL document CHEMBL3886469, “Pyrrolo pyrimidine derivatives” (2016) one finds IC50 data, which are given here for five compounds.

In assay [1] the target is T1, Tyrosine-protein kinase BTK (Homo sapiens, UniProt Q06187). Description: Biochemical Enzyme Assay: The inhibitory activity of the present compounds against Btk was assessed in a biochemical enzyme assay. Assay plates in 384 well format were prepared with 8-point serial dilutions for the test compounds on a Thermo CatX workstation equipped with a Innovadyne Nanodrop Express. The assay plates were prepared by addition of 50 nl per well of compound solution in 90% DMSO. The kinase reactions were started by stepwise addition of 4.5 ul per well of peptide/ATP-solution (4 uM FITC-Ahx-[…]-NH2, 164 uM ATP) in kinase buffer (50 mM HEPES, pH 7.5, 1 mM DTT, 0.02% Tween20, 0.02% BSA, 0.6% DMSO, 10 mM beta-glycerophosphate, and 10 uM sodium orthovanadate, 18 mM MgCl2, 1 mM MnCl2) and 4.5 ul per well of enzyme solution (6.4 nM full-length human recombinant BTK) in kinase buffer. Kinase reactions were incubated at 30° C. for 60 minutes and subsequently terminated by addition of 16 ul per well of stop solution (100 mM HEPES pH 7.5, 5% DMSO, 0.1% Caliper coating reagent, 10 mM EDTA, and 0.015% Brij35). Kinase reactions were analyzed on a Caliper LC3000 workstation by separating phosphorylated and unphosphorylated peptides and kinase activities were calculated from the amounts of newly formed phospho-peptide. Inhibition data were calculated by comparison to control reactions without enzyme (100% inhibition) and without inhibitors (0% inhibition).
T1 sequence (Q06187 whole entry): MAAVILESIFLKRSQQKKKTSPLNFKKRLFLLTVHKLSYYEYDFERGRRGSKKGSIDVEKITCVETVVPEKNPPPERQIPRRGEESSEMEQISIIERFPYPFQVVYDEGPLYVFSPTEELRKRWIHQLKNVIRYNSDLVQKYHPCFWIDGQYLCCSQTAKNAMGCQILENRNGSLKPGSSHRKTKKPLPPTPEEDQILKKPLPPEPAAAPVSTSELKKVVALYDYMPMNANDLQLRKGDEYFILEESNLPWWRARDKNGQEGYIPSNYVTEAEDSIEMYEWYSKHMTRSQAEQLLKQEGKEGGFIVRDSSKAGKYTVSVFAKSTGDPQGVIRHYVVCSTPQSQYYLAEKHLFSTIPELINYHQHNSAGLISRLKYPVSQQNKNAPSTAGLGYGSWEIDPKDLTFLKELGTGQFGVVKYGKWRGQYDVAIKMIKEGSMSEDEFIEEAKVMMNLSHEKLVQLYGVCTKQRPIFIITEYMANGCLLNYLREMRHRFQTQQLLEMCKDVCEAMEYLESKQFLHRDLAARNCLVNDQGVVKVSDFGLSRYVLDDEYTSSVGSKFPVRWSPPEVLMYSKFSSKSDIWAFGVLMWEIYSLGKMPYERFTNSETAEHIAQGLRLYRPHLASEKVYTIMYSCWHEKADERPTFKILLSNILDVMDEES

The target in assay [2] is T1, Tyrosine-protein kinase BTK. Description: Cellular Assay: Alternatively, the present compounds might also be assessed for their capacity to inhibit Btk-dependent FcG receptor-induced IL-8 secretion in human cells. The human myeloid leukemia THP1 cell line (ATCC TIB202) was grown in RPMI 1640 medium supplemented with 10% FCS and 15 nM 1, 25-dihydroxy Vitamin D3 during 4 days before use to induced myeloid differentiation. A sufficient number of tissue-culture grade 384-well plates was coated with human IgG of unknown specificity by incubating overnight at 4° C. with 40 ul/well of a 50 ug/ml IgG solution in PBS. On the day of the experiment, plates were washed 5 times with 80 ul water on a Molecular Devices Aquamax DW4 plate washer. Solutions of the test compounds in 90% DMSO were added to each well on a Hamilton Microlab Star liquid handling station to 40 ul/well tissue culture medium and the total DMSO concentration was adjusted to 0.1%. Differentiated THP1 cells were then added in 40 ul/well to reach a final density of 5'000 cells/well in 80 ul culture medium. After 24 hours, IL-8 secretion was measured in the supernatant by the IL-8 HTRF assay following the protocol of the vendor (CisBio international). Format: cell-based, THP-1.

In the case of `C=C(C)c1ccc(C(=O)Nc2cc(F)cc(-c3ncnc4[nH]c(C5=CCN(C(=O)N(C)C)CC5)cc34)c2C)cc1`, the IC50 in assay [1] was 3 nM.
Take `Cc1c(NC(=O)c2ccc(C(C)(C)O)cc2F)cc(F)cc1-c1ncnc2[nH]c(C3=CCN(C(=O)N(C)C)CC3)cc12`: the concentration for half-maximal inhibition (IC50) in assay [1] was 13 nM.
Still for that read-out and setting: the result for `Cc1c(NC(=O)c2ccc(C3CC3)cc2)cc(F)cc1-c1ncnc2[nH]c(C3=CCN(C(=O)CC#N)CC3)cc12` reads 4 nM; that for `Cc1c(NC(=O)c2ccc(C(C)(C)C)cc2)cc(F)cc1-c1ncnc2[nH]c(C3=CCC4(CC3)OCCO4)cc12`, 110 nM.
As to `Cc1c(NC(=O)c2ccc(C(C)(C)C)cc2)cc(F)cc1-c1ncnc2[nH]c(C3=CCSCC3)cc12`, the IC50 in assay [1] is 23 nM; in assay [2], 94 nM.
